Laboratory results reported in the NIST ThermoML archive (doi:10.1016/j.fluid.2014.05.043).

Experiment: mn = molality of the nth substance listed, in mol/kg
Conditions: 101 kPa, Liquid; for molar conductivity: 293 K, Direct current cell with electrodes; for mass density: Vibrating tube method

CCCCCCCCCCCCCCCCCC(=O)O.NCCO [2-hydroxyethylammonium stearate] + O
Conditions	molar conductivity [S·m2/mol]
m1 = 2.77e-05	0.0501
m1 = 2.83e-05	0.0488
m1 = 2.89e-05	0.0477
m1 = 2.96e-05	0.0464
m1 = 3.03e-05	0.0452
m1 = 3.1e-05	0.044
m1 = 3.18e-05	0.0428
m1 = 3.26e-05	0.0415
m1 = 3.34e-05	0.0403
m1 = 3.43e-05	0.0392
m1 = 3.52e-05	0.0383
m1 = 3.61e-05	0.0371
m1 = 3.71e-05	0.0362
m1 = 3.82e-05	0.0347
m1 = 3.93e-05	0.0336
m1 = 4.05e-05	0.0323
m1 = 4.17e-05	0.0311
m1 = 4.31e-05	0.0297
m1 = 4.45e-05	0.0283
m1 = 4.6e-05	0.0271
m1 = 4.76e-05	0.0256
m1 = 4.94e-05	0.0241
m1 = 5.13e-05	0.0227
m1 = 5.33e-05	0.0214
m1 = 5.56e-05	0.0204
m1 = 5.81e-05	0.0194
m1 = 6.09e-05	0.0183
m1 = 6.38e-05	0.0172
m1 = 6.7e-05	0.0163
m1 = 7.07e-05	0.0153
m1 = 7.45e-05	0.0143

mass density [kg/m3]
Conditions	m1 = 5.8e-06	m1 = 1.15e-05	m1 = 1.73e-05	m1 = 2.31e-05	m1 = 2.89e-05
298.15 K	996	994.86	997.03	996.95	997.02
303.15 K	994.49	995.63	995.65	995.35	995.6
308.15 K	990.78	994.03	993.99	993.62	993.99

O [water] + CCCCCCCCCCCCCCCCCC(=O)O.NCCO
m2 = 0
Conditions	mass density [kg/m3]
298.15 K	996.06
303.15 K	994.67
308.15 K	993.01
